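A five-concentration, 48-hour dose response in 96-well plates underlies each endpoint, interpolated linearly between surrounding concentrations. Here, GI50 denotes the concentration required for 50% inhibition of growth.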 Calls of active or inactive are those of the source. No stated cut-off is given here; in the data, active = GI50 up to about 1.1 µM and inactive = higher.
How the values were obtained:
Assay in all cases: NCI tumour cell line growth inhibition, 48 h
[1] = test system: CCRF-CEM
[2] = test system: COLO 205
[3] = test system: EKVX
[4] = test system: LOX IMVI
[5] = test system: M14
[6] = test system: MCF7
[7] = test system: MDA-MB-231
[8] = test system: MDA-MB-435
[9] = test system: NCI-H226
[10] = test system: OVCAR-5
[11] = test system: RPMI-8226
[12] = test system: SF-268
[13] = test system: SF-295
[14] = test system: SK-MEL-28
[15] = test system: SN12C
[16] = test system: SR
[17] = test system: TK-10
[18] = test system: U-251
[19] = test system: A498
[20] = test system: RXF 393

Structure (SMILES) | GI50 [1] | GI50 [2] | GI50 [3] | GI50 [4] | GI50 [5] | GI50 [6] | GI50 [7] | GI50 [8] | GI50 [9] | GI50 [10] | GI50 [11] | GI50 [12] | GI50 [13] | GI50 [14] | GI50 [15] | GI50 [16] | GI50 [17] | GI50 [18] | GI50 [19] | GI50 [20]
CSC1=NN=C(SC)NN1 | 0.0243 µM (active) | 0.198 µM (active) | 0.186 µM (active) | 0.15 µM (active) | 0.184 µM (active) | 0.201 µM (active) | 0.22 µM (active) | 0.182 µM (active) | 0.181 µM (active) | 0.179 µM (active) | 0.261 µM (active) | 0.189 µM (active) | 0.198 µM (active) | 0.186 µM (active) | 0.18 µM (active) | 0.0204 µM (active) | 0.213 µM (active) | 0.18 µM (active) |  | 
N#CCCN(CCN(CCN(C(=O)Nc1ccccc1)c1ccccc1)C(=O)Nc1ccccc1)C(=O)Nc1ccccc1 | 1.89 µM (inactive) | > 100 µM (inactive) | 54.2 µM (inactive) | > 100 µM (inactive) | > 100 µM (inactive) | 24.7 µM (inactive) | > 100 µM (inactive) | 20.7 µM (inactive) | > 100 µM (inactive) | > 100 µM (inactive) | 6.47 µM (inactive) | > 100 µM (inactive) | > 100 µM (inactive) | > 100 µM (inactive) | > 100 µM (inactive) |  | > 100 µM (inactive) | 5.7 µM (inactive) | > 100 µM (inactive) | > 100 µM (inactive)
Nc1c(C(=O)O)nnc2cc(Cl)c(Cl)cc12 | > 100 µM (inactive) | > 100 µM (inactive) | > 100 µM (inactive) | 82 µM (inactive) | > 100 µM (inactive) | > 100 µM (inactive) | > 100 µM (inactive) | > 100 µM (inactive) | 47.8 µM (inactive) | > 100 µM (inactive) | > 100 µM (inactive) | > 100 µM (inactive) | > 100 µM (inactive) |  | > 100 µM (inactive) | > 100 µM (inactive) | > 100 µM (inactive) | > 100 µM (inactive) | 91 µM (inactive) | 
COc1ccc(C2SCC(=O)N2c2ccc(-c3ccc(-n4c(-c5ccccc5)nc5ccccc5c4=O)cc3)cc2)cc1 (stereo not given) | 28.6 µM (inactive) | 39 µM (inactive) | > 100 µM (inactive) | > 100 µM (inactive) | 85.7 µM (inactive) | 26.1 µM (inactive) | 54.6 µM (inactive) | 49.7 µM (inactive) | 65.3 µM (inactive) | 28.5 µM (inactive) | 21.6 µM (inactive) | > 100 µM (inactive) | 47 µM (inactive) | > 100 µM (inactive) | > 100 µM (inactive) | 19.5 µM (inactive) | 45.2 µM (inactive) | 48.5 µM (inactive) | > 100 µM (inactive) | 
CC12CC1C(c1cccc([N+](=O)[O-])c1)(c1cccc([N+](=O)[O-])c1)N=N2 (stereo not given) | 3.36 µM (inactive) | 21.6 µM (inactive) | 37.7 µM (inactive) | 13.2 µM (inactive) | 38.9 µM (inactive) | 35.6 µM (inactive) | 16.5 µM (inactive) | 36.5 µM (inactive) | 25.3 µM (inactive) | 53.3 µM (inactive) | 2.96 µM (inactive) | 27.7 µM (inactive) | 57 µM (inactive) | 22.1 µM (inactive) | 25.6 µM (inactive) | 19.6 µM (inactive) | 27.8 µM (inactive) | 18.7 µM (inactive) | 4.28 µM (inactive) | 
CN(C)c1ccc(C=C2C(=O)N(c3ccccc3)N(c3ccccc3)C2=O)cc1 |  | > 100 µM (inactive) | > 100 µM (inactive) | 76.6 µM (inactive) | > 100 µM (inactive) | > 100 µM (inactive) | > 100 µM (inactive) | 81.1 µM (inactive) | > 100 µM (inactive) | > 100 µM (inactive) | 69 µM (inactive) | > 100 µM (inactive) | 63.4 µM (inactive) | > 100 µM (inactive) | > 100 µM (inactive) | > 100 µM (inactive) | > 100 µM (inactive) | 37 µM (inactive) | > 100 µM (inactive) | 
COc1ccc(C(C#N)NC23CC4CC(CC(C4)C2)C3)cc1 (stereo not given) | > 100 µM (inactive) | > 100 µM (inactive) | > 100 µM (inactive) | > 100 µM (inactive) | > 100 µM (inactive) | > 100 µM (inactive) | > 100 µM (inactive) | > 100 µM (inactive) | > 100 µM (inactive) | > 100 µM (inactive) | > 100 µM (inactive) | > 100 µM (inactive) | > 100 µM (inactive) | > 100 µM (inactive) | > 100 µM (inactive) | > 100 µM (inactive) | > 100 µM (inactive) | > 100 µM (inactive) |  | > 100 µM (inactive)

Source: ChEMBL document CHEMBL1201862, “PubChem BioAssay data set” (2004)
